Numbers after ± are expanded uncertainties.
Assay: molar heat capacity at saturation pressure
Settings: Vacuum adiabatic calorimetry

c1ccc2c(c1)CCC2 [indane]
molar heat capacity (5 K, Crystal 2): 0.291 ± 0.017 J/K/mol | molar heat capacity (5.31 K, Crystal 2): 0.3492 ± 0.017 J/K/mol | molar heat capacity (6.26 K, Crystal 2): 0.6236 ± 0.025 J/K/mol | molar heat capacity (7.189 K, Crystal 2): 0.9811 ± 0.033 J/K/mol | molar heat capacity (8.165 K, Crystal 2): 1.463 ± 0.05 J/K/mol | molar heat capacity (9.174 K, Crystal 2): 2.12 ± 0.067 J/K/mol | molar heat capacity (10 K, Crystal 2): 2.735 ± 0.033 J/K/mol | molar heat capacity (10.22 K, Crystal 2): 2.918 ± 0.025 J/K/mol | molar heat capacity (11.36 K, Crystal 2): 3.891 ± 0.033 J/K/mol | molar heat capacity (12.63 K, Crystal 2): 5.097 ± 0.042 J/K/mol | molar heat capacity (14.04 K, Crystal 2): 6.61 ± 0.05 J/K/mol | molar heat capacity (15.6 K, Crystal 2): 8.364 ± 0.067 J/K/mol | molar heat capacity (17.35 K, Crystal 2): 10.43 ± 0.075 J/K/mol | molar heat capacity (19.29 K, Crystal 2): 12.76 ± 0.091 J/K/mol | molar heat capacity (20 K, Crystal 2): 13.61 ± 0.091 J/K/mol | molar heat capacity (21.45 K, Crystal 2): 15.35 ± 0.1 J/K/mol | molar heat capacity (23.86 K, Crystal 2): 18.19 ± 0.12 J/K/mol | molar heat capacity (26.55 K, Crystal 2): 21.27 ± 0.12 J/K/mol | molar heat capacity (29.53 K, Crystal 2): 24.47 ± 0.14 J/K/mol | molar heat capacity (30 K, Crystal 2): 24.96 ± 0.14 J/K/mol | molar heat capacity (32.82 K, Crystal 2): 27.82 ± 0.075 J/K/mol | molar heat capacity (36.45 K, Crystal 2): 31.27 ± 0.083 J/K/mol | molar heat capacity (40 K, Crystal 2): 34.44 ± 0.083 J/K/mol | molar heat capacity (40.47 K, Crystal 2): 34.84 ± 0.083 J/K/mol | molar heat capacity (44.94 K, Crystal 2): 38.64 ± 0.091 J/K/mol | molar heat capacity (49.87 K, Crystal 2): 42.67 ± 0.1 J/K/mol | molar heat capacity (50 K, Crystal 2): 42.77 ± 0.1 J/K/mol | molar heat capacity (52.71 K, Crystal 2): 44.96 ± 0.1 J/K/mol | molar heat capacity (55.33 K, Crystal 2): 47.14 ± 0.11 J/K/mol | molar heat capacity (57.68 K, Crystal 2): 49.16 ± 0.11 J/K/mol | molar heat capacity (60 K, Crystal 2): 51.24 ± 0.12 J/K/mol | molar heat capacity (62 K, Crystal 2): 53.22 ± 0.12 J/K/mol | molar heat capacity (62.18 K, Crystal 2): 53.45 ± 0.12 J/K/mol | molar heat capacity (62.48 K, Crystal 2): 53.74 ± 0.12 J/K/mol | molar heat capacity (63.41 K, Crystal 2): 54.75 ± 0.12 J/K/mol | molar heat capacity (64 K, Crystal 2): 55.47 ± 0.12 J/K/mol | molar heat capacity (66 K, Crystal 2): 57.83 ± 0.12 J/K/mol | molar heat capacity (67.11 K, Crystal 2): 59.51 ± 0.12 J/K/mol | molar heat capacity (68 K, Crystal 2): 60.76 ± 0.13 J/K/mol | molar heat capacity (70 K, Crystal 2): 64.04 ± 0.14 J/K/mol | molar heat capacity (70.7 K, Crystal 2): 67.01 ± 0.14 J/K/mol | molar heat capacity (70.76 K, Crystal 2): 67.17 ± 0.14 J/K/mol | molar heat capacity (72 K, Crystal 2): 67.68 ± 0.15 J/K/mol | molar heat capacity (72.08 K, Crystal 2): 72.89 ± 0.17 J/K/mol | molar heat capacity (72.27 K, Crystal 2): 74.46 ± 0.17 J/K/mol | molar heat capacity (72.75 K, Crystal 2): 77.96 ± 0.18 J/K/mol | molar heat capacity (73.08 K, Crystal 2): 82.15 ± 0.25 J/K/mol | molar heat capacity (73.38 K, Crystal 2): 89.8 ± 0.33 J/K/mol | molar heat capacity (73.83 K, Crystal 1): 57.49 ± 0.12 J/K/mol | molar heat capacity (73.83 K, Crystal 2): 71.43 ± 0.15 J/K/mol | molar heat capacity (74 K, Crystal 1): 57.55 ± 0.12 J/K/mol | molar heat capacity (74.14 K, Crystal 1): 63.18 ± 0.16 J/K/mol | molar heat capacity (74.52 K, Crystal 1): 59.93 ± 0.14 J/K/mol | molar heat capacity (74.89 K, Crystal 1): 59.45 ± 0.12 J/K/mol | molar heat capacity (76 K, Crystal 1): 58.28 ± 0.12 J/K/mol | molar heat capacity (76.02 K, Crystal 1): 59.19 ± 0.12 J/K/mol | molar heat capacity (77.68 K, Crystal 1): 59.3 ± 0.12 J/K/mol | molar heat capacity (78 K, Crystal 1): 59.01 ± 0.12 J/K/mol | molar heat capacity (79.98 K, Crystal 1): 59.88 ± 0.12 J/K/mol | molar heat capacity (80 K, Crystal 1): 59.74 ± 0.12 J/K/mol | molar heat capacity (82.01 K, Crystal 1): 60.53 ± 0.13 J/K/mol | molar heat capacity (82.05 K, Crystal 1): 60.55 ± 0.13 J/K/mol | molar heat capacity (82.97 K, Crystal 1): 60.84 ± 0.13 J/K/mol | molar heat capacity (83.17 K, Crystal 1): 60.91 ± 0.13 J/K/mol | molar heat capacity (90 K, Crystal 1): 63.39 ± 0.21 J/K/mol | molar heat capacity (91.46 K, Crystal 1): 63.9 ± 0.21 J/K/mol | molar heat capacity (100 K, Crystal 1): 67.07 ± 0.21 J/K/mol | molar heat capacity (100.48 K, Crystal 1): 67.26 ± 0.21 J/K/mol | molar heat capacity (110.07 K, Crystal 1): 70.8 ± 0.21 J/K/mol | molar heat capacity (119.85 K, Crystal 1): 74.38 ± 0.22 J/K/mol | molar heat capacity (120 K, Crystal 1): 74.45 ± 0.22 J/K/mol | molar heat capacity (129.73 K, Crystal 1): 78.16 ± 0.22 J/K/mol | molar heat capacity (138.66 K, Crystal 1): 81.54 ± 0.22 J/K/mol | molar heat capacity (139.61 K, Crystal 1): 81.94 ± 0.22 J/K/mol | molar heat capacity (140 K, Crystal 1): 82.06 ± 0.22 J/K/mol | molar heat capacity (148.52 K, Crystal 1): 85.42 ± 0.22 J/K/mol | molar heat capacity (158.5 K, Crystal 1): 89.5 ± 0.22 J/K/mol | molar heat capacity (160 K, Crystal 1): 90.14 ± 0.22 J/K/mol | molar heat capacity (168.63 K, Crystal 1): 93.87 ± 0.22 J/K/mol | molar heat capacity (178.81 K, Crystal 1): 98.43 ± 0.23 J/K/mol | molar heat capacity (180 K, Crystal 1): 99 ± 0.23 J/K/mol

— the NIST ThermoML archive (doi:10.1016/j.jct.2015.12.005)
